Holding throughout (experiment): Minimum inhibitory concentration by the plate test (agar)
Common to all, as to type: cell-based

One experiment deals with Escherichia coli A 261. As to conditions: 0-10 colonies formed, pH 7.4; for Minimum inhibitory concentration: per ml of nutrient medium, 5,000 cells/10 ml. The procedure: (§1) […] The bacteria to be tested are cast, together with the nutrient medium and the test substance distributed in the agar, into a Petri dish. The number of bacterial cells is 5,000/10 ml of nutrient medium. The minimum inhibitory concentration is the concentration at which 0-10 colonies are formed.

Experiment [1] deals with Staphylococcus aureus 133. As to conditions: per ml of nutrient medium, 5,000 cells/10 ml, 0-10 colonies formed, pH 7.4. The procedure: as §1
Another experiment concerns Escherichia coli C 165. As to conditions: 0-10 colonies formed, pH 7.4; for Minimum inhibitory concentration: per ml of nutrient medium, 5,000 cells/10 ml. The procedure: as §1
For another experiment, the system named is Proteus vulgaris 1017. The following applies: per ml of nutrient medium, 5,000 cells/10 ml, 0-10 colonies formed, pH 7.4. Here is the method: as §1
A further experiment has as its system Klebsiella 8085. As to conditions: per ml of nutrient medium, 5,000 cells/10 ml, 0-10 colonies formed, pH 7.4. The procedure:
as §1

What is called MIC is the lowest concentration found to suppress growth. High values mean weaker potency, low ones greater potency.

In brackets after ≈: the same amount, converted by molar mass.

Take “6(7)-bromo-2-mercapto-3-methyl-quinoxaline-di-N-oxide [Example 4]”: the Minimum inhibitory concentration (in the experiment with Escherichia coli A 261; in experiment [1]; in the experiment with Escherichia coli C 165) was 100 µg/mL throughout.

On to “6(7)-chloro-2-mercapto-3-methyl-quinoxaline-di-N-oxide [Example 2]”, for which the Minimum inhibitory concentration was 128 µg/mL in the experiment on Escherichia coli A 261; 128 µg/mL in experiment [1]; 64 to 128 µg/mL in the experiment on Proteus vulgaris 1017; 128 µg/mL with Klebsiella 8085; 128 µg/mL in the experiment with Escherichia coli C 165.

In the case of “6(7)-fluoro-2-mercapto-3-methyl-quinoxaline-di-N-oxide [Example 3]”, the Minimum inhibitory concentration in the experiment on Escherichia coli A 261 was 128 µg/mL; in experiment [1], 128 µg/mL; with Proteus vulgaris 1017, 128 µg/mL; in the experiment on Escherichia coli C 165, 64 to 128 µg/mL.

For “6(7)-methoxy-2-mercapto-3-methyl-quinoxaline-di-N-oxide [Example 7]”, the Minimum inhibitory concentration in the experiment on Escherichia coli A 261 was 128 µg/mL; in experiment [1], 128 µg/mL; with Proteus vulgaris 1017, 128 µg/mL; in the experiment with Escherichia coli C 165, 64 to 128 µg/mL.

Consider `Cc1c(S)[n+]([O-])c2ccccc2[n+]1[O-]` [Example 1, 2-Mercapto-3-methylquinoxaline-di-N-oxide], for which the minimal inhibitory concentration (MIC) is 50 to 100 µg/mL (≈ 240 to 480 µM) in the experiment on Escherichia coli A 261 (A261, per ml of nutrient medium, 5,000 cells/10 ml); 100 µg/mL (≈ 480 µM) in experiment [1]; 100 µg/mL (≈ 480 µM) against Proteus vulgaris 1017; 10 µg/mL (≈ 48 µM) with Klebsiella 8085; 50 to 100 µg/mL (≈ 240 to 480 µM) with Escherichia coli C 165 (C165, per ml of nutrient medium, 5,000 cells/10 ml).

For the origin of these results see US4033960A, “2-Mercaptoquinoxaline-di-N-oxide products and a method for their preparation” (Bayer Aktiengesellschaft, priority 1973, dated 1977).
